Measured values from paper doi:10.1101/838656v1 (biorxiv, 2019).
Like-named read-outs stand apart in the source and are kept apart here.

What was measured:
[1] = in vitro; settings: human, a431 cells
[2] = system: HMGA2 (mammalian high mobility group protein AT-hook 2); settings: read-out: Lance Screen IC50; DNA-binding compound; inhibitor
[3] = molecular target: BRD4-BD1 (bromodomain-containing protein 4) (Homo sapiens, UniProt O60885); assay: biochemical
[4] = system: HMGA2 (mammalian high mobility group protein AT-hook 2); settings: read-out: Alpha Screen IC50; DNA-binding compound; inhibitor

Structure (SMILES) | IC50 [3] | CC50 [1] | IC50 [2] | IC50 [4]
O=C1c2c(O)ccc(O)c2C(=O)c2c(NCCNCCO)ccc(NCCNCCO)c21 [Mitoxantrone] | 990 nM | 1650 nM | 1770 nM | 180 nM
COc1cccc2c1C(=O)c1c(O)c3c(c(O)c1C2=O)C[C@@](O)(C(C)=O)C[C@@H]3O[C@H]1C[C@H](NCc2ccc(CN[C@@H]3C[C@@H](O[C@H]4C[C@](O)(C(C)=O)Cc5c(O)c6c(c(O)c54)C(=O)c4c(OC)cccc4C6=O)O[C@H](C)[C@@H]3O)cc2)[C@H](O)[C@H](C)O1 [WP631] | 2050 nM | 170 nM | 170 nM | 44 nM

The next lines start with results.

IC50 [3] | Structure (SMILES) | CC50 [1] | IC50 [2] | IC50 [4]
16900 nM | Nc1ccc(-c2nc3ccc(-c4nc5ccc(N)cc5[nH]4)cc3[nH]2)cc1 [Ro 90-7501] | > 100000 nM |  | 
5000 nM | O=C(O)C1=CC(=C(c2ccc(O)c(C(=O)O)c2)c2ccc(O)c(C(=O)O)c2)C=CC1=O [aurintricarboxylic acid] | > 100000 nM |  | 
> 100000 nM | Cc1ccc(C(=O)Nc2ccc(S(=O)(=O)O)c3cc(S(=O)(=O)O)cc(S(=O)(=O)O)c23)cc1NC(=O)c1cccc(NC(=O)Nc2cccc(C(=O)Nc3cc(C(=O)Nc4ccc(S(=O)(=O)O)c5cc(S(=O)(=O)O)cc(S(=O)(=O)O)c45)ccc3C)c2)c1 [suramin] | > 100000 nM |  | 
